Where two headings read alike, the source gives them in different places.
Tests used:
5-HT2B receptor = target: T1, 5-HT2B receptor (Homo sapiens, UniProt P41595); assay: 5-HT2B binding affinity, human recombinant-CHO cells, 5-HT as control (Bonhaus); conditions: for IC50: agonist 5-HT2B receptor
T1 construct: expressed in transfected cells; host or cells: CHO cells
Experimental: (§1) Each of those receptors were analyzed by methods known in the art. Initial assessment of binding at 100×10^−7 M (10 micro molar) was performed in duplicate.

melatonin ML-1 [1] = assay: ML1 binding affinity, chicken brain; conditions: Table 2; relative potency compared to CCB
Experimental: as §1

melatonin ML-1 [2] = target: T2, melatonin ML-1; assay: ML1 binding affinity, chicken brain; conditions: Table 1; chicken brain
T2 construct: chicken brain
Experimental: as §1

MT2 receptor = target: T3, MT2 receptor (Homo sapiens, UniProt P49286); conditions: at 100×10^−7 M
T3 sequence (P49286 1-362): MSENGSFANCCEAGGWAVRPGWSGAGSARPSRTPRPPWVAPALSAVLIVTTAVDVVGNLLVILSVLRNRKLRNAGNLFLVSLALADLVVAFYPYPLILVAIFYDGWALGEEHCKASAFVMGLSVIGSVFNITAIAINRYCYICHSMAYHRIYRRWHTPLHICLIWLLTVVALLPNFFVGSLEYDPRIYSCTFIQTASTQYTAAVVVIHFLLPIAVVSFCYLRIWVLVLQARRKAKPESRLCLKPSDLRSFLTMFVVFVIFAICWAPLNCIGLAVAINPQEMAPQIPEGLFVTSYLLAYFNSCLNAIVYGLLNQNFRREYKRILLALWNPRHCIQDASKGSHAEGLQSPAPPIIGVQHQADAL
Experimental: as §1

[3] = target: melatonin MT-1 sub-receptor (Homo sapiens, UniProt P48039); conditions: Table 7
Chain of melatonin MT-1 sub-receptor (P48039 whole entry): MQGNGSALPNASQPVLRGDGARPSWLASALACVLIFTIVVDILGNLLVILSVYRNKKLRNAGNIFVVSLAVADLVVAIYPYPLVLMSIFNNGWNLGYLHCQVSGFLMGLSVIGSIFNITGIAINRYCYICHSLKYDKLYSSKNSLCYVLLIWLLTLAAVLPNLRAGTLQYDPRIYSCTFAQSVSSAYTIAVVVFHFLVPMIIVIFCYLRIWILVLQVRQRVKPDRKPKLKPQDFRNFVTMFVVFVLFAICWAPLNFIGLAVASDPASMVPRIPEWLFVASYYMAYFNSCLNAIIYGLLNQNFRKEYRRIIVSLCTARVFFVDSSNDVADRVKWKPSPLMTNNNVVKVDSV
Experimental: as §1

T1 sequence (P41595 whole entry): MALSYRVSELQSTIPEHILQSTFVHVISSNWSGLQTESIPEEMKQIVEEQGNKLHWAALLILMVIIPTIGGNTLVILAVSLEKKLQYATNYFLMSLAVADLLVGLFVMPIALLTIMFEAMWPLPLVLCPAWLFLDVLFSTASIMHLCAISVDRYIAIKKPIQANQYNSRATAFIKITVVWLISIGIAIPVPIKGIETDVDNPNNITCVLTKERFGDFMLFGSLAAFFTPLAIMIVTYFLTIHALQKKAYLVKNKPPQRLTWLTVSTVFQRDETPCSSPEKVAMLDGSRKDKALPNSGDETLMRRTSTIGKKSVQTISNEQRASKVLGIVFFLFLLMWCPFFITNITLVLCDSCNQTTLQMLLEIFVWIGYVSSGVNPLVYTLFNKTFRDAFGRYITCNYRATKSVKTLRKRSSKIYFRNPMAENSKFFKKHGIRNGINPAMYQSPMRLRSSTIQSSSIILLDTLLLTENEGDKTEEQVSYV

| IC50 (5-HT2B receptor; Table 1) | (IC50: ML-1)/(IC50: CCB) (melatonin ML-1 [1]) | IC50 (melatonin ML-1 [2]) | percentage of binding 5-HT2B (5-HT2B receptor; Table 1, at 100×10^−7 M) | (IC50: 5-HT2B)/(IC50: CCB) (5-HT2B receptor; Table 2, relative potency compared to CCB) | Compound | percentage of binding MT2 (MT2 receptor) | % Binding MT-1 ([3]; at 0.1 ×10^−7 M) | % Binding MT-1 ([3]; at 0.3 ×10^−7 M) | % Binding MT-1 ([3]; at 1.0 ×10^−7 M) | % Binding MT-1 ([3]; at 3.0 ×10^−7 M) |
| --- | --- | --- | --- | --- | --- | --- | --- | --- | --- | --- |
| 1.3 µM |  |  |  |  | CCOC(=O)C1=C(C)NC(C)=C(C(=O)OC)C1c1cccc(Cl)c1Cl (centres unmarked) [Felodipine] |  |  |  |  |  |
| > 10 µM | 4,348 | 2 µM | 3% | 21,739 | COC(=O)C1=C(C)NC(C)=C(C(=O)OC(C)C)C1c1cccc2nonc12 (centres unmarked) [Isradipine] |  |  |  |  |  |
|  |  |  |  |  | COc1ccc(CCN(C)CCC[C@](C#N)(c2ccc(OC)c(OC)c2)C(C)C)cc1OC [R-verapamil, (R)-verapamil] | 0% | 13% | 35% | 67% | 83% |

From US20090023814A1, “COMPOSITIONS AND METHODS HAVING MT1 RECEPTOR ACTIVITY” (AGI Therapeutics Research Ltd., priority 2007, published 2009)
